# Source: patent US20220372066A1, “HUMAN SQUALAMINE DERIVATIVES (ENT-06), RELATED COMPOSITIONS COMPRISING THE SAME, AND METHOD OF USING THE SAME” (Enterin, Inc., priority 2019, published 2022)
# Tests used:
# [1] = test system: mouse stomach tissues gene expression; assay: Treatment induced gene expression in mouse stomach tissues, RNA-sequencing, differential expression by fold change (Example 3); assay type: in vivo; settings: for Number of significant features, Down-regulated, fold change threshold 1.3× / Number of significant features, Down-regulated, fold change threshold 2× / Number of significant features, Down-regulated, fold change threshold 4× / Number of significant features, Down-regulated, fold change threshold 8× / Number of significant features, Down-regulated, fold change threshold 16× / Number of significant features, Down-regulated, fold change threshold Any / Number of significant features, Up-regulated, fold change threshold 1.3× / Number of significant features, Up-regulated, fold change threshold 2× / Number of significant features, Up-regulated, fold change threshold 4× / Number of significant features, Up-regulated, fold change threshold 8× / Number of significant features, Up-regulated, fold change threshold 16× / Number of significant features, Up-regulated, fold change threshold Any: stomach
# [2] = test system: murine stomach tissue gene expression profile; assay: Congruence analysis of differentially expressed stomach genes, ENT-01 vs ENT-06; assay type: in vivo, mouse
# Description: Genes that were differentially expressed in response to ENT-01 treatment, as identified in this study, were compared to those that were associated with ENT-06 treatments, respectively. ENT-06 treatment-associated gene expression changes were identified previously. Across all contrasts at the relevant statistical thresholds used to identify significant features, there were ten or less genes that changed in expression upon both treatments (ENT-01 and ENT-06). Note that this included the gene expression changes associated with ageing.
# Congruence analysis was performed between the contrasts Specifically, the analysis compared the effects of human- or shark-origin compound analogues on murine stomach tissue gene expression profile as follows: ENT-01 was compared to ENT-06. Scatter plots, upset plots, venn diagrams, hypergeometric tests and Spearman rank correlation tests were employed to assess the level of overlap. […] Whereas the ENT-01 contrasts in this study defined significant genes using a cutoff of greater than four-fold change in expression.
# Congruence between these sets of genes was then assessed by comparing ENT-01-affected genes to those of ENT-06. […] The symbol U denotes the universe. Overlap was assessed between ENT-01 vs control (young) (202 genes) and ENT-06 vs untreated (young) (26 genes). 10 genes overlapped between the two sets when not considering direction of change. […] The Spearman rank correlation between the genes in the two sets was −0.1313.
# Congruence analysis for: ENT-01 vs ENT-06 (old) was also conducted. […] Overlap was assessed between ENT-01 vs control (old) (383 genes) and ENT-06 vs untreated (old) (55 genes). 1 genes overlapped between the two sets when not considering direction of change. This is no more than would be expected by chance (p=0.5057). The Spearman rank correlation between the genes in the two sets was 0.003217.
# [3] = target: sodium-hydrogen exchanger (“NHE-3”) (Oryctolagus cuniculus, UniProt P26432); settings: Akhter, Nath et al. 1999; cited from earlier work
# Sequence of sodium-hydrogen exchanger (“NHE-3”) (P26432 30-832): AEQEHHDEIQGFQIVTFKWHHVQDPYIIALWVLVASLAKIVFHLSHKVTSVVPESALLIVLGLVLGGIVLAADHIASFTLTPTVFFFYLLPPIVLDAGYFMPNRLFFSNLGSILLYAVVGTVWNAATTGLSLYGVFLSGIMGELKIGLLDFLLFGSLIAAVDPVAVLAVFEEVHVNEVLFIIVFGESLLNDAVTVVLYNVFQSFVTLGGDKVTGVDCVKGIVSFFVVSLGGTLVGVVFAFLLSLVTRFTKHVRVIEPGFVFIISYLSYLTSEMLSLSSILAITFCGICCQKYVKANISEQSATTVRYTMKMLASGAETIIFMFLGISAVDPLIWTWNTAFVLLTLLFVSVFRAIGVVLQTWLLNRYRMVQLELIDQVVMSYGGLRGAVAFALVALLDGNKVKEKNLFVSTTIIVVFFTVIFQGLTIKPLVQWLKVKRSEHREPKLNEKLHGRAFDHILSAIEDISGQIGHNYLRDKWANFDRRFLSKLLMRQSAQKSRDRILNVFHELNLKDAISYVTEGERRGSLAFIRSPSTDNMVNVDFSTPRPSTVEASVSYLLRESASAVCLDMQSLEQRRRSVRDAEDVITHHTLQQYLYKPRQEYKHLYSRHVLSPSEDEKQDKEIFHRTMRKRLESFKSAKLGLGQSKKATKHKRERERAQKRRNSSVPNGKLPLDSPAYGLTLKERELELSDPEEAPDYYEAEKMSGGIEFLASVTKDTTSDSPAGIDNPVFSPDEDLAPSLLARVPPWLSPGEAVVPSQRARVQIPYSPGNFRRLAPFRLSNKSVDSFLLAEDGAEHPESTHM
# [4] = test system: mice with constipation due to overexpression of human αS; settings: orally administered; cited from earlier work
# [5] = test system: mouse stomach RNA transcriptome; assay: RNAseq of stomach transcriptome in old mice after oral squalamine (Example 1); assay type: in vivo; settings: oral dosing 14 days
# Method: The dosing schedule used to determine the effect of orally administered squalamine and ENT-02 (MSI-1436) on the GI tracts of young and old mice was as follows. Male C57B1/6 mice, aged 20 and 78 weeks, were obtained from Jackson labs. Animals were exposed to 12 hr light dark cycles and provided Teklad standard mouse diet and water ad lib.
# Animals were dosed once daily by oral gavage in the morning for a total of 14 days. Animals were fasted 3-4 hours prior to dosing and 1 hour following. The test article was dissolved in 0.5% hydroxypropylcellulose in water. On day 15 the animals were euthanized by C02 asphyxiation, necropsied, and tissues prepared for histology and RNAseq analysis.
# The GI tracts of the animals were sectioned into stomach, duodenum, jejunum, ileum, caecum, colon, and rectum. The tissues were then sent for histology, and the transcriptomes analyzed by RNAseq.
# [6] = Old vs young mice, both treated
# [7] = treatment vs control (old mice)
# [8] = treatment vs control (young mice)
# [9] = cutoff greater than four-fold change in expression
structure (smiles),measurement,setting,value
"CC(C)[C@@H](CC[C@@H](C)[C@H]1CC[C@H]2[C@@H]3[C@H](O)C[C@H]4C[C@@H](NCCCNCCCCNCCCN)CC[C@]4(C)[C@H]3CC[C@]12C)OS(=O)(=O)O (single isomer, unassigned) [ENT-02 (MSI-1436), trodusquemine]","Number of significant features, Down-regulated, fold change threshold 1.3×",[1]; [6],1986
same,"Number of significant features, Down-regulated, fold change threshold 2×",[1]; [6],314
same,"Number of significant features, Down-regulated, fold change threshold 4×",[1]; [6],63
same,"Number of significant features, Down-regulated, fold change threshold 8×",[1]; [6],8
same,"Number of significant features, Down-regulated, fold change threshold 16×",[1]; [6],4
same,"Number of significant features, Down-regulated, fold change threshold Any",[1]; [6],7344
same,"Number of significant features, Up-regulated, fold change threshold 1.3×",[1]; [6],2644
same,"Number of significant features, Up-regulated, fold change threshold 2×",[1]; [6],676
same,"Number of significant features, Up-regulated, fold change threshold 4×",[1]; [6],190
same,"Number of significant features, Up-regulated, fold change threshold 8×",[1]; [6],78
same,"Number of significant features, Up-regulated, fold change threshold 16×",[1]; [6],39
same,"Number of significant features, Up-regulated, fold change threshold Any",[1]; [6],7669
same,"Number of significant features, Down-regulated, fold change threshold 1.3×",[1]; [7],1395
same,"Number of significant features, Down-regulated, fold change threshold 2×",[1]; [7],203
same,"Number of significant features, Down-regulated, fold change threshold 4×",[1]; [7],38
same,"Number of significant features, Down-regulated, fold change threshold 8×",[1]; [7],7
same,"Number of significant features, Down-regulated, fold change threshold 16×",[1]; [7],1
same,"Number of significant features, Down-regulated, fold change threshold Any",[1]; [7],7597
same,"Number of significant features, Up-regulated, fold change threshold 1.3×",[1]; [7],2109
same,"Number of significant features, Up-regulated, fold change threshold 2×",[1]; [7],657
same,"Number of significant features, Up-regulated, fold change threshold 4×",[1]; [7],298
same,"Number of significant features, Up-regulated, fold change threshold 8×",[1]; [7],139
same,"Number of significant features, Up-regulated, fold change threshold 16×",[1]; [7],42
same,"Number of significant features, Up-regulated, fold change threshold Any",[1]; [7],7416
same,"Number of significant features, Down-regulated, fold change threshold 1.3×",[1]; [8],2429
same,"Number of significant features, Down-regulated, fold change threshold 2×",[1]; [8],531
same,"Number of significant features, Down-regulated, fold change threshold 4×",[1]; [8],120
same,"Number of significant features, Down-regulated, fold change threshold 8×",[1]; [8],43
same,"Number of significant features, Down-regulated, fold change threshold 16×",[1]; [8],16
same,"Number of significant features, Down-regulated, fold change threshold Any",[1]; [8],7667
same,"Number of significant features, Up-regulated, fold change threshold 1.3×",[1]; [8],1860
same,"Number of significant features, Up-regulated, fold change threshold 2×",[1]; [8],232
same,"Number of significant features, Up-regulated, fold change threshold 4×",[1]; [8],30
same,"Number of significant features, Up-regulated, fold change threshold 8×",[1]; [8],7
same,"Number of significant features, Up-regulated, fold change threshold 16×",[1]; [8],1
same,"Number of significant features, Up-regulated, fold change threshold Any",[1]; [8],7346
"C[C@H](CCC[C@@H](C)[C@H]1CCC2C3C(CC[C@@]21C)[C@@]1(C)CC[C@H](NCCCNCCCCN)C[C@@H]1C[C@H]3O)C(=O)O (single isomer, unassigned) [ENT-06, 3-β-Spermidino-7α-hydroxy-5α-cholestanoic acid]",Spearman rank correlation between the genes in the ENT-01 and ENT-06 sets,[2]; old mice,0.003217
same,"overlap of genes down-regulated in ageing and up-regulated in treatment, ENT-01 vs ENT-06",[2]; old mice,did not overlap
same,"genes overlapping with ENT-01 vs control (old) set, not considering direction of change","[2]; old mice, p=0.5057",1 genes
same,"number of significant genes, treatment vs untreated (old)",[2]; threshold FDR-adjusted P<0.05,55 genes
same,"number of significant genes, treatment vs untreated (young)",[2]; threshold FDR-adjusted P<0.05,26 genes
same,"genes overlapping with ENT-01 vs control (young) set, not considering direction of change","[2]; young mice, p=1.721e−16",10 genes
same,Spearman rank correlation between the genes in the ENT-01 and ENT-06 sets,"[2]; young mice, p=5.678e−57",−0.1313
"CC(C)[C@@H](CC[C@@H](C)[C@H]1CC[C@H]2[C@@H]3[C@H](O)C[C@H]4C[C@@H](NCCCNCCCCN)CC[C@]4(C)[C@H]3CC[C@]12C)OS(=O)(=O)O (single isomer, unassigned) [ENT-01, squalamine]","number of significant genes, treatment vs control (old)",[2]; [9],383 genes
same,"number of significant genes, treatment vs control (young)",[2]; [9],202 genes
same,inhibition of NHE-3,[3],inhibit
same,gastro-intestinal motility,[4],stimulates gastro-intestinal motility
same,overlap of genes downregulated in aged mice with genes up-regulated in response to treatment in old mice,[1]; hypergeometric P<0.0001,overlapped significantly
same,mRNA levels for all of the genes of Table 3 after treatment,[5],significant increase
